Here are results for one compound from patent US9969758B2, “Antimicrobial compounds” (BIOMERIEUX, priority 2014, dated 2018).

The subject of one assay is E. faecalis (11). In words: MIC by agar dilution. The settings on record: Enterococcus faecalis, E. faecalis (11). It is filed as cell-based, Enterococcus faecalis. Put shortly:
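Agar dilution in peptone-free medium with 2% saponin-lysed horse blood, 25.0 μg/mL NAD and 25.0 μg/mL hemin; compounds at 0.016–32 μg/mL for gram-positives. Inoculum 10 000 CFU/spot; plates incubated 22 hours at 37° C, at least two independent replicates.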

Another assay relates to Citrobacter (n=9). In words: MIC by agar dilution. The class given is cell-based. The essentials: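 Agar dilution on peptone-free medium with 2% lysed horse blood, NAD and hemin (25.0 μg/mL each), compounds 0.0031 to 8.0 μg/mL; inoculum 10 000 CFU/spot, 22 h at 37° C. Fosfomycin tested in IsoSensitest medium plus 25.0 μg/mL glucose-6-phosphate; at least two replicates.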
In general terms: In agar dilution the substance is mixed into plates at graded concentrations.

As a reminder, the MIC50 is the lowest concentration that inhibits either 50% of growth or 50% of the strains tested, depending on the study. A word on the MIC90: it is an inhibitory concentration at the 90% level, which refers to growth in some studies and to a panel of isolates in others. As a reminder, the MIC is the lowest concentration that inhibits growth of the organism.

≈ marks a conversion by molar mass, not a printed value.

Regarding `C[C@H](N)C(=O)N[C@@H](C)P(=O)(O)O` [Alafosfalin, L-alanyl-L-1-aminoethylphosphonic acid], the MIC50 in the assay with E. faecalis (11) (read-out: MIC50) was determined as 8 µg/mL (≈ 40.8 µM). Besides, in the assay on E. faecalis (11) (read-out: MIC90), the MIC90 was determined as 32 µg/mL (≈ 163 µM). Besides, in the assay with E. faecalis (11) (read-out: Modal MIC (most frequent MIC)), the MIC worked out at 8 µg/mL (≈ 40.8 µM). In addition, in the assay on Citrobacter (n=9), the “concentration to which all the isolates were sensitive” value was not above 4 µg/mL.
